The values below come from publication PMC3064895 (Cancer Chemotherapy and Pharmacology, 2010).

Series [1] can be described thus: Plasma pharmacokinetics at steady state of sorafenib. In kind it is in vivo, patients with advanced cancer. The conditions noted are these: for AUC, geometric mean (% CV): AUC(0–12), n = 14; for AUC, geometric mean (% CV) / AUCnorm, geometric mean (% CV) / C max, geometric mean (% CV) / C max,norm, geometric mean (% CV) / C trough, geometric mean (% CV) / C trough,norm, geometric mean (% CV) / t max, median (range): plasma, sorafenib 400 mg bid; for AUC ratio (90% CI) / C max ratio (90% CI) / C trough ratio (90% CI): ratio of day 1 of cycle 5 versus day 1 of cycle 2.

For series [2] the following is noted: cited from earlier work.
Series [3] in a line: QT/QTc interval on 12-lead Holter ECG. The conditions noted are these: 2 h post-dose; oral 400-mg single dose, positive control, 1 day before cycle 1. In kind it is in vivo, patients with advanced cancer.
The conditions of series [4]: cited from earlier work; for Patients with declines to <50 LVEF(%): Hutson et al.; for Mean change in LVEF(%): study by Chu et al.

Where two headings read alike, the source gives them in different places. A value given as a limit tells only on which side of the number the result lay.

For the molecule `NC(=O)c1cc(Oc2ccc(NC(=O)Nc3ccc(Cl)c(C(F)(F)F)c3)cc2)ccn1` [BAY 43-9007], in series [1] (Day 1 of cycle 2), the “AUC, geometric mean (% CV)” value is recorded as 2.0 (59.1) mg h/L; the “AUCnorm, geometric mean (% CV)” value is 0.4 (62.8) kg h/L; the “C max, geometric mean (% CV)” value is 0.2 (73.4) mg/L; the “C max,norm, geometric mean (% CV)” value was 0.1 (75.2) kg/L. Also, in series [1] (Day 1 of cycle 2), the “C trough, geometric mean (% CV)” value is recorded as 0.2 (82.3) mg/L; the “C trough,norm, geometric mean (% CV)” value is on record as <0.1 (85.0) kg/L; the “t max, median (range)” value is listed as 1.00 (0–12.00) h. Besides, in series [1] (Day 1 of cycle 5), the “AUC, geometric mean (% CV)” value was 1.1 (74.0) mg h/L; the “AUCnorm, geometric mean (% CV)” value was 0.2 (80.9) kg h/L; the “C max, geometric mean (% CV)” value was 0.1 (75.5) mg/L; the “C max,norm, geometric mean (% CV)” value is on record as <0.1 (78.2) kg/L. Also, in series [1] (Day 1 of cycle 5), the “C trough, geometric mean (% CV)” value is 0.1 (82.4) mg/L; the “C trough,norm, geometric mean (% CV)” value is given as <0.1 (84.8) kg/L; the “t max, median (range)” value is reported as 2.00 (0–12.00) h. Further, in series [1], the “AUC ratio (90% CI)” value is 0.57 (0.41–0.81), the “C max ratio (90% CI)” value is 0.51 (0.38–0.68) and the “C trough ratio (90% CI)” value is reported as 0.52 (0.38–0.70).

For the molecule `CNC(=O)c1cc(Oc2ccc(NC(=O)Nc3ccc(Cl)c(C(F)(F)F)c3)cc2)cc[n+]1[O-]` [BAY 67-3472], in series [1] (Day 1 of cycle 2), the “AUC, geometric mean (% CV)” value is listed as 8.5 (58.3) mg h/L; the “AUCnorm, geometric mean (% CV)” value is on record as 1.4 (59.6) kg h/L; the “C max, geometric mean (% CV)” value is recorded as 1.0 (66.8) mg/L; the “C max,norm, geometric mean (% CV)” value is 0.2 (70.2) kg/L. Also, in series [1] (Day 1 of cycle 2), the “C trough, geometric mean (% CV)” value was 0.8 (81.1) mg/L; the “C trough,norm, geometric mean (% CV)” value is listed as 0.1 (85.9) kg/L; the “t max, median (range)” value was 1.00 (0–12.00) h. For the same molecule, in series [1] (Day 1 of cycle 5), the “AUC, geometric mean (% CV)” value is 5.2 (98.7) mg h/L; the “AUCnorm, geometric mean (% CV)” value is reported as 0.9 (103.2) kg h/L; the “C max, geometric mean (% CV)” value is on record as 0.6 (96.9) mg/L; the “C max,norm, geometric mean (% CV)” value was 0.1 (100.7) kg/L. In addition, in series [1] (Day 1 of cycle 5), the “C trough, geometric mean (% CV)” value was 0.5 (109.4) mg/L; the “C trough,norm, geometric mean (% CV)” value is 0.1 (111.5) kg/L; the “t max, median (range)” value was 2.00 (0–8.12) h. Besides, in series [1], the “AUC ratio (90% CI)” value was 0.61 (0.41–0.92), the “C max ratio (90% CI)” value is given as 0.58 (0.41–0.82) and the “C trough ratio (90% CI)” value is reported as 0.54 (0.36–0.81).

Turning to `NC(=O)c1cc(Oc2ccc(NC(=O)Nc3ccc(Cl)c(C(F)(F)F)c3)cc2)cc[n+]1[O-]` [BAY 68-7769], in series [1] (Day 1 of cycle 2), the “AUC, geometric mean (% CV)” value is reported as 2.8 (92.3) mg h/L; the “AUCnorm, geometric mean (% CV)” value is 0.5 (91.4) kg h/L; the “C max, geometric mean (% CV)” value is recorded as 0.3 (101.6) mg/L; the “C max,norm, geometric mean (% CV)” value is recorded as 0.1 (99.6) kg/L. Moreover, in series [1] (Day 1 of cycle 2), the “C trough, geometric mean (% CV)” value is 0.3 (114.5) mg/L; the “C trough,norm, geometric mean (% CV)” value is reported as 0.1 (113.5) kg/L; the “t max, median (range)” value is 2.00 (0–12.00) h. In series [1] (Day 1 of cycle 5), the “AUC, geometric mean (% CV)” value is reported as 1.4 (129.3) mg h/L; the “AUCnorm, geometric mean (% CV)” value is listed as 0.3 (128.1) kg h/L; the “C max, geometric mean (% CV)” value is on record as 0.2 (127.2) mg/L; the “C max,norm, geometric mean (% CV)” value was <0.1 (123.6) kg/L. Also, in series [1] (Day 1 of cycle 5), the “C trough, geometric mean (% CV)” value is 0.1 (127.8) mg/L; the “C trough,norm, geometric mean (% CV)” value is listed as <0.1 (124.7) kg/L; the “t max, median (range)” value is on record as 2.00 (0–8.05) h. Moreover, in series [1], the “AUC ratio (90% CI)” value is listed as 0.50 (0.28–0.89), the “C max ratio (90% CI)” value is recorded as 0.47 (0.28–0.80) and the “C trough ratio (90% CI)” value is on record as 0.49 (0.29–0.83).

Regarding `COc1c(N2C[C@@H]3CCCN[C@@H]3C2)c(F)cc2c(=O)c(C(=O)O)cn(C3CC3)c12` [Moxifloxacin], in series [2], the “Increase in QT/QTc interval” value was 5 to 10 ms. Also, in series [3], the “Mean (SD) change from baseline in QT” value is reported as 5.7 (24.3) ms, the “Mean (SD) change from baseline in QTcB” value is 4.4 (12.9) ms and the “Mean (SD) change from baseline in QTcF” value is 4.9 (13.7) ms.

Consider `CCN(CC)CCNC(=O)c1c(C)[nH]c(/C=C2\C(=O)Nc3ccc(F)cc32)c1C` [sunitinib], for which the “Patients with declines to <50 LVEF(%)” value in series [4] (after 1 cycle (6 weeks)) is reported as 12%; in series [4] (after 1 year), 10%; in series [4] (after 2 years), 5%. Further, the “Mean change in LVEF(%)” value in series [4] (after 2 cycles) is on record as −2.2 LVEF(%); in series [4] (after 4 cycles), −5.1 LVEF(%). The “Incidence of ≥10 LVEF(%) reduction” value in series [4] (observational study by Schmidinger et al.) is listed as 14%.
